Patent publication US10653780B2, “Amino lipids and methods for the delivery of nucleic acids” (ARBUTUS BIOPHARMA CORPORATION, priority 2008, dated 2020)
Read-outs that look alike come from different tables or passages of the source. Marks after values point to notes of the source that are not given here.

Columns and labels:
Factor VII (FVII) = settings: for survival: 15 mg/kg dose, mice; for fold less active than DLinDMA: mouse FVII model
Description: It is well established that in vivo RNAi silencing of specific hepatocyte proteins can be achieved following intravenous (i.v.) administration of siRNA's encapsulated in, or associated with, select nanoparticles designed for intracellular delivery. […] In this Example, rational design in combination with in vivo screening were applied to systematically modify the structure of DLinDMA and identify molecular features that enhance or reduce cationic lipid potency. More than 30 lipids were synthesized and incorporated into nucleic acid-lipid particles, i.e., lipid nanoparticles (LN) encapsulating an siRNA (LN-siRNA) targeting Factor VII (FVII), a blood clotting component synthesized and secreted by hepatocytes that is readily measured in serum. LN-siRNA systems were prepared using the same process, lipid molar ratios and particle size to minimize effects on activity resulting from formulation characteristics other than the cationic lipid. Each formulation was administered as a single bolus injection over a range of doses enabling an estimate of the siRNA dose required to reduce FVII serum protein concentrations by 50% after 24 h (ED50).
FVII activity was evaluated in FVII siRNA-treated animals at 24 hours after intravenous (bolus) injection in C57BL/6 mice or 48 hours after intravenous (bolus) injection in SD rats. Six to 8 week old, female C57Bl/6 mice were obtained from Charles River Laboratories and acclimated for one week prior to use in studies. Animals were held in a pathogen-free environment and all procedures involving animals were performed in accordance with the guidelines established by the Canadian Council on Animal Care.
LN-siRNA systems containing Factor VII siRNA were diluted to the appropriate concentrations in sterile phosphate buffered saline immediately prior to use, and the formulations were administered intravenously via the lateral tail vein in a total volume of 10 ml/kg. After 24 h, animals were anaesthetised with Ketamine/Xylazine and blood was collected by cardiac puncture and processed to serum (Microtainer Serum Separator Tubes; Becton Dickinson, Franklin Lakes, N.J., USA). Serum was tested immediately or stored at −70° C. for later analysis for serum Factor VII levels.
FVII was measured using a commercially available kit (Biophen FVII Kit™; Aniara Corp., Mason, Ohio), following the manufacturer's instructions at a microplate scale. FVII reduction was determined against untreated control animals, and the results were expressed as % Residual FVII. Five dose levels (0.1, 0.3, 0.5, 1.0, and 3.0 mg/kg) were typically used.
Serum Factor VII levels were determined using the colorimetric Biophen VII assay kit (Anaira, USA). Briefly, serially diluted pooled control serum (200%-3.125%) and appropriately diluted plasma samples from treated animals were analyzed using the Biophen VII kit according to manufacturer's instructions in 96-well, flat bottom, non-binding polystyrene assay plates (Corning, Corning, N.Y.) and absorbance at 405 nm was measured. A calibration curve was generated using the serial diluted control serum and used to determine levels of Factor VII in serum from treated animals.
Initial studies were performed in eight to 10 week old, female C57BL/6 mice in two stages. In the first stage, the activity associated with the benchmark lipid DLinDMA was compared to the activity associated with modified forms of DLinDMA.

[1] = Pharmacokinetic and liver analysis of Cy-3 labeled siRNA in LN-siRNA systems; type: in vivo
Description: A fluorescently labeled siRNA (Cy-3 labeled luciferase siRNA, Alnylam Pharmaceuticals) was used to measure the siRNA content in plasma and liver after iv administration of LN-siRNA systems. The measurements were done by first extracting the Cy3-siRNA from the protein-containing biological matrix and then analyzing the amount of Cy-3 label in the extract by fluorescence. Two extraction methods were used, a chloroform/methanol mixture for the plasma samples and a commercial phenol/chloroform mixture (Trizol® reagent) with the tissue samples.
For plasma, blood was collected in EDTA-containing Vacutainer tubes and centrifuged at 1000×g for 10 min at 4-8° C. to isolate the plasma. The plasma was transferred to an eppendorf tube and either assayed immediately or stored in a −30° C. freezer. An aliquot of the plasma (100 μL maximum) was diluted to 500 μL with PBS (145 mM NaCl, 10 mM phosphate, pH 7.5), methanol (1.05 mL and chloroform (0.5 mL) was added, and the sample vortexed to obtain a clear, single phase solution. Water (0.5 mL) and chloroform (0.5 mL) was then added and the resulting emulsion sustained by mixing periodically for a minimum of 3 minutes. The mixture was centrifuged at 3000 rpm for 20 minutes and the top aqueous phase containing the Cy-3-label transferred to a new test tube. The fluorescence of the solution was measured using an SLM Fluorimeter at an excitation wavelength of 550 nm (2 nm bandwidth) and emission wavelength of 600 nm (16 nm bandwidth). A standard curve was generated by spiking aliquots of plasma from untreated animals with the Cy-3-siRNA containing formulation (0 to 15 μg/mL), and the sample processed as indicated above.
For liver, sections (400-500 mg) of tissue from saline-perfused animals was accurately weighed and homogenized in 1 mL of Trizol using Fastprep tubes. An aliquot of the homogenate (typically equivalent to 50 mg of tissue) was transferred to an eppendorf tube and additional Trizol added to 1 mL final. Chloroform (0.2 mL) was added, and the solution was mixed and incubated for 2-3 min before being centrifuged for 15 min at 12,000×g. An aliquot (0.5 mL) of the top Cy-3-containing aqueous phase was diluted with 0.5 mL of PBS and the fluorescence of the sample measured as described above.
The correlation between levels of siRNA delivered to the liver and FVII reduction was determined by encapsulating Cy-3 labeled siRNA in the selection of LN-siRNA systems covering a spectrum of in vivo activities shown in Table 8. Cy-3 fluorescence was measured in plasma and liver tissue 0.5 and 3.0 h post injection.

[2] = Table 6, siRNA dose reducing serum FVII protein by 50% at 24 h, PFV LN-siRNA 40/10/40/10
[3] = Table 3, siRNA dose reducing serum FVII protein by 50% at 24 h, single i.v. bolus, PFV LN-siRNA 40/10/40/10
[4] = Table 5, siRNA dose reducing serum FVII protein by 50% at 24 h, PFV LN-siRNA 40/10/40/10
[5] = Table 4, siRNA dose reducing serum FVII protein by 50% at 24 h, PFV LN-siRNA 40/10/40/10
[6] = Table 8, FVII ED50 of the LN-siRNA system
[7] = siRNA dose reducing serum FVII protein by 50% at 24 h, PFV LN-siRNA 40/10/40/10
[8] = Table 7, siRNA dose reducing serum FVII protein by 50% at 24 h, PFV LN-siRNA 40/10/40/10

## CCCCC/C=C\C/C=C\CCCCCCCCC1(CCCCCCCC/C=C\C/C=C\CCCCC)OC(CN(C)C)C(CN(C)C)O1 (centres unmarked) [DLin-K^2-DMA, 2,2-Dilinoleyl-4,5-bis(dimethylaminomethyl)-[1,3]-dioxolane]
Factor VII (FVII); [2]
  ED50: ~0.4 mg/kg

## 1,2-Dilinoleyloxy-3-(2-N,N-dimethylamino) ethoxypropane [DLin-EG-DMA]
Factor VII (FVII); [3]
  ED50: 5 to 12 mg/kg

## CCCCC/C=C\C/C=C\CCCCCCCC(=O)OCC(C[N+](C)(C)C)OC(=O)CCCCCCC/C=C\C/C=C\CCCCC.[Cl-] (centres unmarked) [DLinTAP.Cl]
Factor VII (FVII); [4]
  ED50: >25 mg/kg

## CCCCC/C=C\C/C=C\CCCCCCCCSCC(CN(C)C)SCCCCCCCC/C=C\C/C=C\CCCCC (centres unmarked) [DLin-S-DMA, 1 ,2-Dilinoleylthio-3-dimethylaminopropane]
Factor VII (FVII); [5]
  ED50: 12 to 25 mg/kg
Factor VII (FVII); [6]
  ED50: 12 to 25 mg/kg

## CCCCC/C=C\C/C=C\CCCCCCCCN(CCCCCCCC/C=C\C/C=C\CCCCC)CC(O)CO (centres unmarked) [DLinAP]
Factor VII (FVII); [4]
  ED50: 5 to 12 mg/kg
Factor VII (FVII); [6]
  ED50: 5 to 12 mg/kg
Factor VII (FVII); [7]
  ED50: 5 to 12 mg/kg

## CCCCC/C=C\C/C=C\CCCCCCCCC1(CCCCCCCC/C=C\C/C=C\CCCCC)OCC([N+](C)(C)C)O1.[Cl-] (centres unmarked) [DLin-K-TMA.Cl, 2,2-Dilinoleyl-4-trimethylamino-[1,3]-dioxolane Chloride]
Factor VII (FVII); 5 mg/kg
  FVII activity: No activity observed
Factor VII (FVII); 5 mg/kg, data not shown
  body weight: significant weight loss
Factor VII (FVII); 5 mg/kg, listed as DLin-K-TMA
  FVII activity: No activity was observed
Factor VII (FVII)
  survival: lethal
Factor VII (FVII); listed as DLin-K-TMA
  survival: did not survive
Factor VII (FVII); [2]
  ED50: >5^a mg/kg

## CCCCCCCC/C=C\CCCCCCCC(=O)OCC(C[N+](C)(C)C)OC(=O)CCCCCCC/C=C\CCCCCCCC.[Cl-] (centres unmarked) [DOTAP.Cl, 1,2-Dioleyloxy-3-trimethylaminopropane chloride salt, reference compound]
Factor VII (FVII); [4]
  ED50: >25 mg/kg

## CCCCCCCC/C=C\CCCCCCCCC1(CCCCCCCC/C=C\CCCCCCCC)OCC(CN(C)C)O1 (centres unmarked) [DO-K-DMA]
Factor VII (FVII); [8]
  ED50: ~1.0 mg/kg
Factor VII (FVII); [7]
  ED50: ~1.0 mg/kg

## CCCCC/C=C\C/C=C\CCCCCCCCOCC(CN1CCOCC1)OCCCCCCCC/C=C\C/C=C\CCCCC (centres unmarked) [DLinMA, 1,2-Dilinoleyloxy-3-morpholinopropane]
Factor VII (FVII); [3]
  ED50: 12 to 25 mg/kg
Factor VII (FVII); [6]
  ED50: 12 to 25 mg/kg
Factor VII (FVII); [7]
  ED50: 12 to 25 mg/kg

## 1,2-Dilinoleyloxy-3-trimethylaminopropane chloride [DLinTMA.Cl]
Factor VII (FVII); [3]
  ED50: 2 to 5 mg/kg

## CCCCCCCCCCCCCCCCCCC1(CCCCCCCCCCCCCCCCCC)OCC(CN(C)C)O1 (centres unmarked) [DS-K-DMA]
Factor VII (FVII); [8]
  ED50: ~8.0 mg/kg
Factor VII (FVII); [7]
  ED50: ~8.0 mg/kg

## CCCCC/C=C\C/C=C\CCCCCCCCC1(CCCCCCCC/C=C\C/C=C\CCCCC)OCC(CN(C)C)O1 (stereo not drawn) [DLin-K-DMA (+)]
Factor VII (FVII); [7]
  ED50: ~0.3 mg/kg

## CCCCC/C=C\C/C=C\CCCCCCCCOCC(COC(=O)CN(C)C)OCCCCCCCC/C=C\C/C=C\CCCCC (centres unmarked) [DLinDAC, 1,2-Dilinoleyloxy-3-(dimethylamino) acetoxypropane]
Factor VII (FVII); [3]
  ED50: 5 to 12 mg/kg
Factor VII (FVII); [6]
  ED50: 12 to 25 mg/kg

## CCCCCCCC/C=C\CCCCCCCCOCC(CN(C)C)OCCCCCCCC/C=C\CCCCCCCC (centres unmarked) [DODMA, reference compound]
Factor VII (FVII); [4]
  ED50: 2 to 5 mg/kg
Factor VII (FVII)
  fold less active than DLinDMA: 2 to 5 fold

## CCCCC/C=C\C/C=C\CCCCCCCCC(CCCCCCCC/C=C\C/C=C\CCCCC)OC(=O)CCN(C)C [DLin-M-DMA, Dilinoleylmethyl 3-Dimethylaminopropionate]
Factor VII (FVII); [8]
  ED50: ~0.7 mg/kg
Factor VII (FVII); [7]
  ED50: ~0.7 mg/kg

## 2,2-dilinoleyl-4-N-morpholino-[1,3]-dioxolane [DLin-K-MA]
Factor VII (FVII); 15 mg/kg maximum dose
  FVII activity at maximum dose tested: inactive
Factor VII (FVII); [2]
  ED50: >15 mg/kg
Factor VII (FVII); Table 11
  FVII ED50: >15 mg/kg

## CCCCC/C=C\C/C=C\CCCCCCCCOCC(CN1CCN(C)CC1)OCCCCCCCC/C=C\C/C=C\CCCCC (centres unmarked) [DLinMPZ, 1,2-Dilinoleyloxy-3-(N-methylpiperazino) propane]
Factor VII (FVII); [3]
  ED50: 2 to 5 mg/kg
Factor VII (FVII); [6]
  ED50: 2 to 5 mg/kg

## CCCCCCCC/C=C\CCCCCCCCNC(=O)OCC(CN(C)C)OC(=O)NCCCCCCCC/C=C\CCCCCCCC (centres unmarked) [DO-C-DAP]
Factor VII (FVII); 10 mg/kg maximum dose
  FVII activity at maximum dose tested: inactive
Factor VII (FVII); [4]
  ED50: >10 mg/kg

## CCCC/C=C\CCCCCCCC(=O)OCC(CN(C)C)OC(=O)CCCCCCC/C=C\CCCC (centres unmarked) [DMDAP]
Factor VII (FVII); 10 mg/kg maximum dose
  FVII activity at maximum dose tested: no activity was observed
Factor VII (FVII); [4]
  ED50: >10 mg/kg

## CCCCCCCC/C=C\CCCCCCCC(=O)OCC(CN(C)C)OC(=O)CCCCCCC/C=C\CCCCCCCC (centres unmarked) [DODAP, 1,2-dioleoyl-3-dimethylammonium propane, reference compound]
Factor VII (FVII); [4]
  ED50: >25 mg/kg
Factor VII (FVII)
  fold less active than DLinDMA: more than 25 fold

## CCCCC/C=C\C/C=C\CCCCCCCCOC(COC(=O)CCCCCCC/C=C\C/C=C\CCCCC)CN(C)C (centres unmarked) [DLin-2-DMAP, 1-Linoleoyl-2-linoeyloxy-3-dimethylaminopropane]
Factor VII (FVII); [5]
  ED50: 5 to 12 mg/kg
Factor VII (FVII); [6]
  ED50: 5 to 12 mg/kg
[1]; 0.5 h post injection
  Liver Cy-3 siRNA: 20.5 % injected dose
  Plasma Cy-3 siRNA: 17.5 % injected dose
[1]; 3.0 h post injection
  Liver Cy-3 siRNA: 2.5 % injected dose
  Plasma Cy-3 siRNA: 8.8 % injected dose

## CCCCC/C=C\C/C=C\CCCCCCCCNC(=O)OCC(CN(C)C)OC(=O)NCCCCCCCC/C=C\C/C=C\CCCCC (centres unmarked) [DLin-C-DAP, 1,2-Dilinoleylcarbamoyloxy-3-dimethylaminopropane]
Factor VII (FVII); [5]
  ED50: 12 to 25 mg/kg
Factor VII (FVII); [6]
  ED50: 12 to 25 mg/kg
[1]; 0.5 h post injection
  Liver Cy-3 siRNA: 28.5 % injected dose
  Plasma Cy-3 siRNA: 69.4 % injected dose
[1]; 3.0 h post injection
  Liver Cy-3 siRNA: 13.5 % injected dose
  Plasma Cy-3 siRNA: 19.0 % injected dose
